Measurements published in patent US20250353812A1, “2,6-DIBENZYLIDENECYCLOHEXANONE OXIME COMPOUND AND PREPARATION METHOD THEREFOR AND USE THEREOF” (WENZHOU MEDICAL UNIVERSITY, priority 2022, published 2025).

Experiments:
IL-6 = assay: Inhibition of IL-6 release from J774A.1 macrophages stimulated by LPS (ELISA); type: cell-based; conditions: 10 μM compound pretreatment 2 h, then 0.5 μg/mL LPS 22 h, LPS control = 100, FIG. 1
Experimental: (§1) The present invention tested the dose-effect relationship of some of the compounds of Examples in inhibiting the release of IL-6 and TNF-α from J774A.1 macrophages stimulated by LPS. The specific method is as follows: 1.2×10^6 […] macrophages were cultured by DMEM culture solution at 37° C., the culture solution was renewed after 24 h, the tested example compound (at a final concentration of 10 μM) was added for pretreatment for 2 h and then continuously treated by 0.5 μg/mL of LPS for 22 h, the culture solution was collected, and the content of IL-6 and TNF-α was detected by ELISA method. The total protein concentration was measured by collecting cells, the ELISA results were divided by the corresponding total protein concentration and calibrated by the IL-6 and TNF-α content of LPS control group as 100, and the average and error values were calculated.

TNF-α = assay: Inhibition of TNF-α release from J774A.1 macrophages stimulated by LPS (ELISA); type: cell-based; conditions: 10 μM compound pretreatment 2 h, then 0.5 μg/mL LPS 22 h, LPS control = 100, FIG. 2
Experimental: as §1

[1] = tested on: liver inflammation in obese mice; assay: Protective effect on liver inflammation in obese mice (high-fat diet); type: in vivo; conditions: HFD mice, Example 9 12 mg/kg, intragastric gavage every two days for 8 weeks; for macrophage infiltration in the liver (F4/80 staining) / upregulation of IL-1β gene in mouse liver tissue (mRNA) / upregulation of IL-6 gene in mouse liver tissue (mRNA) / upregulation of TNF-α gene in mouse liver tissue (mRNA): Example 2 10 mg/kg
Experimental: (§2) A suspension of 0.5% sodium carboxymethylcellulose and the compounds of Examples was prepared for intragastric administration. The blank control group and the high-fat diet obesity model group were administrated with equal doses of solvent (0.5% CMC-Na solution) intragastrically. The mice were first adaptively raised for 1 week, and when the mice were 8 weeks old, they were randomly divided into 2 groups (A: Con, B: HFD). Group A was fed with normal mouse feed, and mice in group B were fed with 60% high-fat feed for 16 weeks. After the model was successfully established at 12 weeks, the mice in group B were randomly divided into three groups (i: HFD, ii: HFD+Example 9, 12 mg/kg, iii: HFD+Example 2, 10 mg/kg). The body weight of the mice was measured and recorded every week, and groups ii and iii were treated with the compounds of Examples by intragastric gavage every two days for 8 weeks. After 24 weeks, the mice were anesthetized and sacrificed, and blood samples were collected and centrifuged to collect serum for various serum biochemical tests; the liver was removed, and the liver tissue was cut and embedded (frozen and paraffin) for immunohistochemistry and other analyses. The remaining liver tissues were snap frozen in liquid nitrogen and stored in a −80° C. freezer.
Taking the compounds of Examples 2 and 9 as examples, the experimental results are shown in FIGS. 3A-3D and FIGS. 4A-4E, where 2 and 9 represent the compounds of Example 2 and Example 9, respectively. Inflammation was assessed by examining macrophage infiltration in the liver using the macrophage-specific marker F4/80 staining. […] In addition, the expression of TNF-α, IL-6 and IL-1β genes in liver tissue was detected.

[2] = tested on: liver lipid metabolism of obese mice; assay: Protective effect on liver lipid metabolism of obese mice (high-fat diet); type: in vivo; conditions: HFD mice; Example 9 12 mg/kg, Example 2 10 mg/kg, intragastric gavage every two days for 8 weeks
Experimental: as §2
The liver lipid metabolism of obese mice is taken as an example. […] It can be clearly seen from the above test results that the compound having the structure of formula I of the present invention has a protective effect on the liver lipid metabolism of obese mice.

Row | Structure (SMILES) | inhibitory effect on the release of IL-6 (IL-6) | inhibitory effect on the release of TNF-α (TNF-α) | macrophage infiltration in the liver (F4/80 staining) [1] | upregulation of IL-1β gene in mouse liver tissue (mRNA) [1] | upregulation of IL-6 gene in mouse liver tissue (mRNA) [1] | upregulation of TNF-α gene in mouse liver tissue (mRNA) [1] | dyslipidemia caused by high-fat diet feeding (serum triglycerides, low-density lipoprotein cholesterol, total cholesterol) [2] | lipid accumulation in the liver (H&E staining) [2] | lipid accumulation in the liver (oil red staining of frozen sections, quantified) [2] | degradation of IκB-α in the liver caused by high-fat diet feeding (Western blot) [1]
1 | CCCON=C1/C(=C/c2ccccc2C(F)(F)F)CCC/C1=C\c1ccccc1C(F)(F)F [Example 2, 2,6-(E,E)-(2-(trifluoromethyl)benzylidene)cyclohexan-1-one propyl oxime] | significant inhibitory effect | significant inhibitory effect | decreased | significantly alleviated | significantly alleviated | significantly alleviated | significantly alleviated | significantly alleviated | significantly alleviates | 
2 | ON=C1/C(=C/c2ccccc2C(F)(F)F)CCC/C1=C\c1ccccc1C(F)(F)F [Example 9, 2,6-(E,E)-(2-(trifluoromethyl)benzylidene)cyclohexanone oxime] | significant inhibitory effect | significant inhibitory effect | decreased | significantly alleviated | significantly alleviated | significantly alleviated | significantly alleviated | significantly alleviated | significantly alleviates | significantly inhibit
